Results on six compounds are retold here after article PMC3433420 (PLoS ONE, 2012).

The Kd is a measure of binding affinity in units of concentration. Read a low Kd as a tighter complex.

Residues, ends and D or L forms follow the SMILES beside them.

One assay addresses T1, PIK3R3-N SH2 domain (Homo sapiens, UniProt Q92569).
T1 construct: 6X His; thioredoxin; made in house; host or cells: E. coli BL21(DE3)pLysS
Briefly: FP saturation binding assay. The conditions noted are these: high-confidence ErbB interactions. The procedure:
(§1) (See Figure 1A) Rhodamine-labeled peptides were dissolved in assay buffer (20 mM HEPES, 100 mM KCl, 0.1% Tween-20, 5 mM DTT, pH 7.8), diluted to a concentration of 20 nM, and plated into black 384-well plates (Corning, Corning, NY) at 5 µL/well using a Perkin Elmer EP3 pipetting workstation (V&P Scientific, Inc., San Diego, CA). SH2, PTB, and thioredoxin control proteins were plated into the first column of 2 mL 96-well plates (Corning) at a concentration of 20 µM and serially diluted 1∶2 into freezing buffer (300 mM NaCl, 50 mM Na2PO4, pH 8, 20% glycerol v/v) eleven times using a Tecan Freedom EVO 100 workstation (Tecan, Männedorf, Switzerland). For the interaction assay, 5 µL of each of the twelve protein concentrations was added to the peptide-containing 384-well plates via the EP3 resulting in a protein dilution range of 0.002–10 µM and a final volume of 10 µL; peptide concentration was fixed at 10 nM. Peptide/protein samples were incubated for 20 minutes at room temperature in the dark and fluorescence polarization (FP) was measured in an Analyst GT multimode reader (Molecular Devices, Sunnyvale, CA) with excitation and emission wavelengths of 530 nm and 555 nm, respectively. Experimental values were output as millipolarization (mP) units and imported into MATLAB (The MathWorks, Inc., Natick, MA) in which equation (1) was used to determine dissociation constants (KDs) for each protein/peptide pairing by least squares nonlinear regression. [drawing 1] (1)
(§2) FP was described by the following equation: P=Iparallel-IperpendicularIparallel+Iperpendicular, where “P” denotes polarization, and “I” denotes the fluorescent intensity relative to the plane of incident light. Experimental values were output as millipolarization (mP) units and imported into MATLAB where the following equation was used to determine dissociation constants (KDs) for each protein/peptide pairing by least squares nonlinear regression:
(§3) Pobs=Pmax∙ProteinKD+Protein [picture] (1)
(§4) Peptides were initially tested for systematic plate effects across protein dilutions and nonspecific binding to thioredoxin by linear regression analysis and any effects were regressed out. The median baseline control polarization value for each plate was then subtracted from each data point to make each binding curve intersect at zero. Plates with excessive variation in baseline control polarizations on both a global and run-specific manner (Dixon’s Q test, p < 0.05) were excluded from further analysis. Outliers in each binding curve were identified and removed using an iterative procedure as follows. The residuals for each fit were used to calculate a global standard deviation of the residuals (GSDR) for each concentration of SH2 domain over all interactions, and individual data points with residuals < or > two GSDR from the global mean residual were flagged as outliers. The outlier with the largest residual from each interaction was removed and nonlinear regression was again performed. This procedure was repeated if additional outliers were identified for an interaction, discarding the interaction if the number of outliers exceeded three. […] In order to further control our false positive rate against hidden confounding variables producing binding artifacts, we sought to determine whether there was a significant relationship between the strength of an interaction and its technical replication rate at our stringent significance and filtering thresholds. We performed logistic regression on the proportion of successful replicates for each interaction query against KD for all interactions (Figure S15A). […] This is related to the observation that the majority of interactions detected by FP are tight (Figure S15B). With this logit model, we assigned a probability to each peptide-protein interaction in our data by using a binomial proportions test to compare the observed versus the expected replication rate at the particular KD of that interaction (Table S4). […]

The target in assay [1] is T2, PLCG1-NC tandem SH2 domains (Homo sapiens, UniProt P19174).
T2 construct: the tandem protein was included in our analysis with all internal amino acids linking the domains; 6X His; thioredoxin; made in house; host or cells: E. coli BL21(DE3)pLysS
T2 sequence (P19174 550-756 limits assumed): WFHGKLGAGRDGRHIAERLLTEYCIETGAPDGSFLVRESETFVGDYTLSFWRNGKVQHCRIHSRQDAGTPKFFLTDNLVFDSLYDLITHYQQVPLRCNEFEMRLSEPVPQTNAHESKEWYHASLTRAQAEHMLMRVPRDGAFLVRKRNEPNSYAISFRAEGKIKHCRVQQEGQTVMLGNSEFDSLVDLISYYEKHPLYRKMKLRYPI
The assay is described as follows: FP saturation binding assay. The note with it: Protein PLCG1-NC; FP saturation binding, high-confidence ErbB interactions; mean over replicate hits. The procedure:
as §1, with “Peptide/protein samples were incubated for 20 minutes at room temperature in the dark and fluorescence polarization (FP) was measured in an Analyst GT multimode reader (Molecular Devices, Sunnyvale, CA) with excitation and emission wavelengths of 530 nm and 555 nm, respectively.” left out
as §2, §3
Peptides were initially tested for systematic plate effects across protein dilutions and nonspecific binding to thioredoxin by linear regression analysis and any effects were regressed out. The median baseline control polarization value for each plate was then subtracted from each data point to make each binding curve intersect at zero. Plates with excessive variation in baseline control polarizations on both a global and run-specific manner (Dixon’s Q test, p < 0.05) were excluded from further analysis. Outliers in each binding curve were identified and removed using an iterative procedure as follows. The residuals for each fit were used to calculate a global standard deviation of the residuals (GSDR) for each concentration of SH2 domain over all interactions, and individual data points with residuals < or > two GSDR from the global mean residual were flagged as outliers. The outlier with the largest residual from each interaction was removed and nonlinear regression was again performed. This procedure was repeated if additional outliers were identified for an interaction, discarding the interaction if the number of outliers exceeded three. […] In order to further control our false positive rate against hidden confounding variables producing binding artifacts, we sought to determine whether there was a significant relationship between the strength of an interaction and its technical replication rate at our stringent significance and filtering thresholds. We performed logistic regression on the proportion of successful replicates for each interaction query against KD for all interactions (Figure S15A). […] “High-confidence” FP interactions are defined as those having 1 - P(Observed Replication Rate | Expectation) > 0.5 and that have replicated at least twice across independent FP runs. […] The compiled FP data were organized into heatmaps generated by MATLAB and relative binding strength (µM). Peptides without at least one positive hit were classified as “no interaction” if there was no homologous sequence (i.e. identical at the +1 to +4 positions relative to the phosphotyrosine) that produced a positive interaction within the ErbB receptor family.

For assay [2], the target named is PIK3R2-NC tandem SH2 domains (Homo sapiens, UniProt O00459). Briefly: FP saturation binding assay.
For a further assay, the target named is T3, PIK3R1-N SH2 domain (Homo sapiens, UniProt P27986).
T3 construct: thioredoxin; made in house; host or cells: E. coli BL21(DE3)pLysS
Briefly: biochemical. The note with it: Protein PIK3R1-N; FP saturation binding, high-confidence ErbB interactions; mean over replicate hits. The class given is binding.

In assay [3] the target is T4, PIK3R3-NC tandem SH2 domains (Homo sapiens, UniProt Q92569).
T4 construct: the tandem protein was included in our analysis with all internal amino acids linking the domains; 6X His; thioredoxin; made in house; host or cells: E. coli BL21(DE3)pLysS
The assay is described as follows: FP saturation binding assay. The conditions noted are these: protein PIK3R3-NC; FP, high-confidence ErbB interactions; mean of replicate hits. The procedure:
as §1, §2, §3, §4

For assay [4], the system named is 93 human SH2 domains and 2 phosphotyrosine binding (PTB) domains. Briefly: FP saturation binding assay, whole domain panel (protein named per line or not at all). The conditions noted are these: for interaction with the SH2/PTB domain panel: KD <= 20 µM counted as interaction; for SH2 domains found to interact: high-confidence interactions (Table S11, Figure S14). On the procedure: as §1
To scale up the number of interaction measurements while minimizing variation introduced by human intervention, we utilized an automated robotic platform (Figure 1A; see experimental procedures and Supplementary Methods) to transfer, incubate, and measure the fluorescence polarization (FP) induced from interactions of a titration series of SH2 domains with synthetic rhodamine-labeled ErbB phosphopeptides. Experimental values were output as millipolarization (mP) units and equation (1) was used to fit apparent midpoint dissociation constants (KDs) for each protein/peptide pair using non-linear regression (see experimental procedures).
For this interaction analysis, we synthesized and queried the interaction of phosphopeptides corresponding to 89 of 92 ErbB family intracellular tyrosines with 93 SH2 domains. Because nine peptide sequences share 100% identity between the receptors in the 4 to 7 amino acids C-terminal to the phosphorylated tyrosine, our peptide set consisted of 81 phosphopeptides corresponding to the 89 unique tyrosine containing sequences (Table S2). This peptide set represents a 50% increase over the three PM studies performed to date. We were therefore able to obtain a more systematic and unbiased view of the relative SH2 domain recruitment potential of each receptor. Although most ErbB receptor auto-phosphorylation sites have been detected frequently by mass spectrometry because of their high relative modification stoichiometry, non-auto-phosphorylation sites have been reported less frequently in the literature (Table S3). We reasoned that many physiologically relevant and uncharacterized ErbB tyrosines of low phosphorylation stoichiometry may exist and that our comprehensive interaction analysis might implicate their importance in mediating physiological interactions. We tested the majority of interactions (7099/8160 (87.0%); Figure S3) three or more times and reported standard error for all interactions that were detected in at least three FP runs (Table S4). […] Analysis of this polarization data may be useful for inferring how SH2 proteins bind to different peptide sequences. Larger proteins and proteins binding closer to the N-terminal rhodamine tag of a given peptide would be expected to induce higher maximal polarization (the calculated maximal polarization value at infinite protein concentration) than proteins binding farther from the tag. In addition to phosphopeptides, we queried a representative set of 27 non-phosphopeptides against the entire domain set. […]

Chain of PIK3R2-NC tandem SH2 domains (O00459 330-716 limits assumed): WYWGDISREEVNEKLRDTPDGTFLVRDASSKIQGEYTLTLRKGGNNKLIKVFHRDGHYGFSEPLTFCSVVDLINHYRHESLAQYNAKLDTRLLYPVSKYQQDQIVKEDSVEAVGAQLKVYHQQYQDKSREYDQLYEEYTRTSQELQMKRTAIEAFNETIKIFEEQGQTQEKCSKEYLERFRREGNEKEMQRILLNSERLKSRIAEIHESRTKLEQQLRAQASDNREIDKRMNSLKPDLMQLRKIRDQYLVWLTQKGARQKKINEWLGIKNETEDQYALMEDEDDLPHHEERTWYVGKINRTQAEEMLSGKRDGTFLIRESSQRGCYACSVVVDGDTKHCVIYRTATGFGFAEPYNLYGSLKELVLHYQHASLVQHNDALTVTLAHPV
T3 sequence (P27986 333-428 limits assumed): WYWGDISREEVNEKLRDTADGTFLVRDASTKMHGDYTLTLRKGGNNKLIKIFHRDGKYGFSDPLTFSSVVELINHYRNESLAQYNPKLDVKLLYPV

In the case of `CC(C)C[C@H](NC(=O)CNC(=O)[C@H](CC(C)C)NC(=O)[C@H](Cc1ccc(OP(=O)(O)O)cc1)NC(=O)[C@H](CCC(=O)O)NC(=O)[C@@H]1CCCN1C(=O)[C@H](CC(N)=O)NC(=O)[C@@H](N)CCC(=O)O)C(=O)N[C@@H](CC(=O)O)C(=O)N[C@H](C(=O)N1CCC[C@H]1C(=O)N[C@H](C(=O)N[C@@H](CC(=O)O)C(=O)O)C(C)C)C(C)C` [ErbB2 1248 13-mer] (HELM PEPTIDE1{E.N.P.E.[O=C([C@H](Cc1ccc(OP(=O)(O)O)cc1)N[*:1])[*:2]].L.G.L.D.V.P.V.D}$$$$V2.0), the Kd is 11.2 µM at PIK3R3-N SH2 domain (Protein PIK3R3-N, FP saturation binding, mean over replicate hits); 9.97 µM in assay [1]; 9.9 µM in assay [2].
With `CSCC[C@H](NC(=O)[C@@H]1CCCN1C(=O)[C@H](CCSC)NC(=O)[C@H](Cc1ccc(OP(=O)(O)O)cc1)NC(=O)CNC(=O)[C@H](CO)NC(=O)[C@H](CO)NC(=O)[C@@H]1CCCN1)C(=O)N[C@@H](CC(N)=O)C(=O)N[C@@H](CCC(N)=O)C(=O)NCC(=O)N[C@@H](CC(N)=O)C(=O)N[C@@H](CC(=O)O)C(=O)O` [ErbB3 1054 13-mer] (HELM PEPTIDE1{P.S.S.G.[O=C([C@H](Cc1ccc(OP(=O)(O)O)cc1)N[*:1])[*:2]].M.P.M.N.Q.G.N.D}$$$$V2.0), the Kd on PIK3R1-N SH2 domain is 1.8 µM; in assay [3] it was 0.26 µM.
For the compound `CSCC[C@H](NC(=O)[C@H](Cc1ccc(O)cc1)NC(=O)[C@H](CCC(=O)O)NC(=O)[C@H](Cc1ccc(OP(=O)(O)O)cc1)NC(=O)[C@H](CCC(=O)O)NC(=O)[C@H](CCC(=O)O)NC(=O)[C@H](CC(=O)O)NC(=O)[C@@H](N)CCC(=O)O)C(=O)N[C@@H](CC(N)=O)C(=O)N[C@@H](CCCNC(=N)N)C(=O)N[C@@H](CCCNC(=N)N)C(=O)N[C@@H](CCCNC(=N)N)C(=O)N[C@@H](CC(=O)O)C(=O)O` [ErbB3 1197 13-mer] (HELM PEPTIDE1{E.D.E.E.[O=C([C@H](Cc1ccc(OP(=O)(O)O)cc1)N[*:1])[*:2]].E.Y.M.N.R.R.R.D}$$$$V2.0), the Kd was determined as 1.32 µM on PIK3R3-N SH2 domain (protein PIK3R3-N, FP, mean of replicate hits) and 0.2 µM in assay [3].
“DAEEpYLVPQAFN [ErbB4 pY1022, N-terminally rhodamine-labeled 13-mer phosphopeptide]”: the “interaction with the SH2/PTB domain panel” value in assay [4] is “did not produce any interaction hits”.
“DVWSpYGVTIWELd [ErbB4 pY906, N-terminally rhodamine-labeled 13-mer phosphopeptide]”: in assay [4], the “interaction with the SH2/PTB domain panel” value is listed as “reproducibly interacted at high affinity with many SH2 domains”; the “SH2 domains found to interact” value is “interacted with ZAP70, GRB7, and GRB10 SH2 domains”.
For “KIRKpYTMRRLLQd [ErbB2 pY685, N-terminally rhodamine-labeled 13-mer phosphopeptide]”, in assay [4], the “interaction with the SH2/PTB domain panel” value is on record as “reproducibly interacted at high affinity with many SH2 domains” and the “SH2 domains found to interact” value is reported as “interacted with SOCS family SH2 domains”.
